Data: patent US20220281866A1, “5,8-DISUBSTITUTED-[1,2,4]TRIAZOLO[1,5-A]PYRIDINYL AND 5,8-DISUBSTITUTED-IMIDAZO[1,2-A]PYRIDINE DERIVATIVES USEFUL AS INHIBITORS OF ENTEROPEPTIDASE” (Janssen Pharmaceutica NV, priority 2019, published 2022)

Tests used:
[1] = molecular target: T1, Bovine trypsin (Bos taurus, UniProt P00760); test: Biochemical Assay of Trypsin (T), H-D-CHA-AR-AMC substrate; settings: 15 μM substrate, 0.025 nM Trypsin; for inhibition at 0.1 µM: compound 0.1 μM; for inhibition at 1 µM: compound 1 μM; for inhibition at 10 µM: compound 10 μM
T1 construct: purchased Sigma-Aldrich T1426
T1 sequence (P00760 24-246): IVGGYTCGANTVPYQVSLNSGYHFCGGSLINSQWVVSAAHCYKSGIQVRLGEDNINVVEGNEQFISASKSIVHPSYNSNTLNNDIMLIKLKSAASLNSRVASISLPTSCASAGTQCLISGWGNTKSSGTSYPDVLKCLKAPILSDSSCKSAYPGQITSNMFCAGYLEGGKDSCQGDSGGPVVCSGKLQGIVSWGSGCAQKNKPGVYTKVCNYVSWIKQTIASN
Protocol: Bovine trypsin was purchased from Sigma-Aldrich (Cat No. T1426), and 7-amino-4-methylcoumarin (AMC) conjugated peptide H-D-cyclohexylalanine (D-CHA)-AR-AMC was used as the substrate in the assay. The protease activity of trypsin was followed by measuring AMC production by the emission fluorescence intensity of AMC at 460 nm with the excitation at 375 nm, in the same assay buffer as used in the EP assay. The enzyme kinetic characterization studies yielded an average of KM to be 3.9±0.5 μM and the apparent turnover number kcat^app of 33.8±0.4 s^−1 (N=2).
Studies of compound inhibition against T were carried out under the conditions of 15 μM substrate and 0.025 nM Trypsin. Reaction progress curves were collected by reading the FI at 375/460 nm continuously for 1 hour at an interval of 1 minute. Similar to the procedure for Enteropeptidase described above, compounds of formula (I) were screened against Trypsin at 4 different concentrations to obtain the percent of inhibition at 10 μM, 1 μM, 0.1 μM and 0.01 μM, and accurate potencies of selected compounds against Trypsin were derived from detailed 12-point dose-dependence studies for time-dependent inhibitors.
(§1) Representative compounds of the present invention were tested according to the procedures as described in Biological Example 1 and Biological Example 2 above, with results as listed in Table 2 and Table 3, below. Results are reported as the %-inhibition (% Inh) or Kinact/KI value. Variability for the functional assay was typically within 20%. For the column headed Kinact/KI the listed measurement is the result of duplicate dilutions.

[2] = molecular target: T2, Recombinant full-length human EP (Enteropeptidase) (Homo sapiens, UniProt P98073); test: In vitro inhibition potencies against Enteropeptidase (EP), fluorescent peptide GDDDDK-naphthylamine substrate; type: biochemical; settings: 300 μM substrate, 1.25 nM EP; for inhibition at 0.1 µM: compound 0.1 μM; for inhibition at 1 µM: compound 1 μM; for inhibition at 10 µM: compound 10 μM
T2 construct: Recombinant full-length human EP (PeproTech, Cat #450-48C); purchased PeproTech 450-48C
Protocol: In vitro inhibition potencies against Enteropeptidase (EP) Recombinant full-length human EP (PeproTech, Cat #450-48C) was used in this biochemical assay, with a quenched fluorescent labeled peptide GDDDDK-naphthylamine (NA) (Sigma, Cat #G5261) as the substrate in a buffer of 50 mM Tris-HCl pH 7.4, 200 mM NaCl and 0.01% Triton X-100. The enzyme activity was measured by following the formation of the cleavage product […](NA) by monitoring the fluorescence intensity (FI) at excitation/emission wavelengths of 340/410 nm. The steady-state kinetic characterization studies yielded an average of KM to be 412±22 μM and the apparent turnover number kcat^app of 11.8±0.4 s^−1 (N=2).
Compound inhibition studies were carried out under the conditions of 300 μM substrate and 1.25 nM EP. Reaction progress curves were collected by reading the FI at 340/410 nm continuously for 1 hour at an interval of 1 minute.
To screen compounds of formula (I), inhibition was studied at 4 different compound concentrations of 10 μM, 1 μM, 0.1 μM and 0.01 μM. Initial velocity of the reaction was determined, and percent of inhibition was calculated by comparing to the reaction in the absence of compound.
Accurate measurements of the inhibition potencies of selected compounds were studied in a 12-point dose-dependence fashion. […] Compound potency was measured by determining the inactivation rate constant (kobs) following the reaction change from the initial velocity vi to the steady-state velocity vs at various compound concentrations. The inactivation rate constants (kobs), were derived by fitting the reaction progress curves to eq. 1.
where YT is the detection signal of the reaction at time t, vi and vs are the initial and the steady-state velocities of the reaction, t is the reaction time. Y0 is the background signal (when t=0).
Compound binding mechanism was shown by plotting kobs˜[compound]. Hyperbolic fitting to eq. 2
conforms to a two-step binding mechanism as shown in Scheme BIO-1.
The plateau of the curve is the forward step rate constant of the isomerization step k3, KI^app is the inhibitor concentration that leads to half-maximal rate of inhibition of enzyme under the assay conditions. Compound inhibition potency was reported by the value of k3/KI^app.
A linear dependence of eq.3
indicates a one-step binding mechanism as shown in Scheme BIO-2
Slope of the linear fit gives the second-order rate constant of the compound binding k1, which is used to represent the compound inhibition potency.
as §1

T2 sequence (P98073 whole entry): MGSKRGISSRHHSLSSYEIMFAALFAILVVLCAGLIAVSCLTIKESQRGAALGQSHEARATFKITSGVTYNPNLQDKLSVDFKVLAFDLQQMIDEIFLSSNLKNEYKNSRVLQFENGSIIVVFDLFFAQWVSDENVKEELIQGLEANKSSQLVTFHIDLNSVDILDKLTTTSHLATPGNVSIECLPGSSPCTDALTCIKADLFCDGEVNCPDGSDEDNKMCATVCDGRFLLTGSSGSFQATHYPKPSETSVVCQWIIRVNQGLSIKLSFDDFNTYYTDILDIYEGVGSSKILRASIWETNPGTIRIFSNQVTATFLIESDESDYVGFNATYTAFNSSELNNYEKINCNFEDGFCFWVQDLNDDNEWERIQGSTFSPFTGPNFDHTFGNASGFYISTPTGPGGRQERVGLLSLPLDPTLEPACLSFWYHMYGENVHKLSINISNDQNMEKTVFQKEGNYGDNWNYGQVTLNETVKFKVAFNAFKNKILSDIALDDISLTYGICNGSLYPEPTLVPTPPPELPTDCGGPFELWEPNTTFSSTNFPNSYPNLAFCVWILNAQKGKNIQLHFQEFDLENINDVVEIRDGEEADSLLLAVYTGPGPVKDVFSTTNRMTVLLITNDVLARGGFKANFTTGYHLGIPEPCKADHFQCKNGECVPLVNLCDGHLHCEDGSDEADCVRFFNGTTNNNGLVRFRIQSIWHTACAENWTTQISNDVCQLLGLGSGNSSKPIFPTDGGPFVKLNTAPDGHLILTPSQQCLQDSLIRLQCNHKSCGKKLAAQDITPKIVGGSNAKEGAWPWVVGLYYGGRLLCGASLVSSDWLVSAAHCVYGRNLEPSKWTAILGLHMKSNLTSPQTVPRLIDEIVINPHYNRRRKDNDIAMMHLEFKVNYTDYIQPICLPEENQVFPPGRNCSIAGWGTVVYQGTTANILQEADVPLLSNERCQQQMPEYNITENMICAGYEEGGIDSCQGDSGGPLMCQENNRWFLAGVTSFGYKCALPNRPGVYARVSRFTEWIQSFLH

inhibition at 0.1 µM [1] [%]	inhibition at 1 µM [1] [%]	inhibition at 10 µM [1] [%]	inhibition at 0.1 µM [2] [%]	inhibition at 1 µM [2] [%]	inhibition at 10 µM [2] [%]	SMILES
6.3	56.6	99.8	18.7	84.4	101	N=C(N)Nc1ccc(C(=O)Oc2ccc(CC(=O)O)n3ncnc23)cc1Cl [Compound 16, 2-(8-(3-chloro-4-guanidinobenzoyloxy)-[1,2,4]triazolo[1,5-a]pyridin-5-yl)acetic]
99.8	100	100	73	101	100	N=C(N)Nc1ccc(C(=O)Oc2ccc(C3OC(=O)NC3=O)n3ncnc23)cc1 (stereo not drawn) [Compound 17, 5-(2,4-dioxooxazolidin-5-yl)-[1,2,4]triazolo[1,5-a]pyridin-8-yl 4-guanidinobenzoate]
43.5	97.6	99.9	81.2	100	100	N=C(N)Nc1ccc(C(=O)Oc2ccc(CC(=O)O)n3ncnc23)c(Cl)c1 [Compound 18, 2-(8-(2-chloro-4-guanidinobenzoyloxy)-[1,2,4]triazolo[1,5-a]pyridin-5-yl)acetic acid]
9.5	48.9	99.7	10.3	59.9	101	Cc1cc(NC(=N)N)ccc1C(=O)Oc1ccc(CC(=O)O)n2ncnc12 [Compound 19, 2-(8-(4-guanidino-2-methylbenzoyloxy)-[1,2,4]triazolo[1,5-a]pyridin-5-yl)acetic acid]
2.3	16.6	88.7	4.1	38.5	98.9	N=C(N)Nc1ccc(C(=O)Oc2ccc(CC(=O)O)n3ncnc23)c(C(F)(F)F)c1 [Compound 20, 2-(8-(4-guanidino-2-(trifluoromethyl)benzoyloxy)-[1,2,4]triazolo [1,5-a]pyridin-5-yl)acetic acid]
97.1	99.7	100	99.4	100	100	N=C(N)Nc1ccc(C(=O)Oc2ccc(CC(=O)O)n3ncnc23)c(F)c1 [Compound 21, 2-(8-(2-fluoro-4-guanidinobenzoyloxy)-[1,2,4]triazolo[1,5-a]pyridin-5-yl)acetic acid]
0.9	12.3	29.9	-3	-6.3	32.1	N#Cc1cc(C(=O)Oc2ccc(CC(=O)O)n3ncnc23)ccc1NC(=N)N [Compound 22, 2-(8-(3-cyano-4-guanidinobenzoyloxy)-[1,2,4]triazolo[1,5-a]pyridin-5-yl)acetic acid]
12.4	73.1	100	34.3	92.1	101	N=C(N)Nc1ccc(C(=O)Oc2ccc(CC(=O)O)n3ncnc23)cc1O [Compound 23, 2-(8-(4-guanidino-3-hydroxybenzoyloxy)-[1,2,4]triazolo[1,5-a]pyridin-5-yl)acetic acid]
14.6	80	99.9	36.3	98.8	100	N=C(N)Nc1ccc(C(=O)Oc2ccc(CC(=O)O)n3ncnc23)c2ccoc12 [Compound 24]
99.2	100	100	45.2	102	101	N=C(N)Nc1ccc(C(=O)Oc2cc(CCC(=O)O)cn3ncnc23)cc1 [Compound 25, 3-(8-(4-guanidinobenzoyloxy)-[1,2,4]triazolo[1,5-a]pyridin-6-yl)propanoic acid]
81.7	100	100	13.2	58.8	101	N=C(N)Nc1ccc(C(=O)Oc2cc(CC(=O)O)cn3ncnc23)cc1 [Compound 26, 2-(8-(4-guanidinobenzoyloxy)-[1,2,4]triazolo[1,5-a]pyridin-6-yl)acetic acid]
99.3	100	100	81.2	100	100	N=C(N)Nc1ccc(C(=O)Oc2ccc(CC(=O)NC(CC(=O)O)C(=O)O)n3ccnc23)cc1 (stereo not drawn) [Compound 27, 2-(2-(8-(4-guanidinobenzoyloxy)imidazo[1,2-a]pyridin-5-yl)acetamido)succinic acid]
97.8	99.9	100	88.6	98.5	99.9	N=C(N)Nc1ncc(C(=O)Oc2ccc(CC(=O)NC(CC(=O)O)C(=O)O)n3ncnc23)cn1 (stereo not drawn) [Compound 28, 2-(2-(8-(2-guanidinopyrimidine-5-carbonyloxy)-[1,2,4]triazolo[1,5-a]pyridin-5-yl)acetamido)succinic acid]
95.8	99.7	100	95.3	99.4	100	N=C(N)Nc1ncc(C(=O)Oc2ccc(CC(=O)O)n3ccnc23)cn1 [Compound 29, 2-(8-(2-guanidinopyrimidine-5-carbonyloxy)imidazo[1,2-a]pyridin-5-yl)acetic acid]
96.5	100	100	92.1	99.5	100	CS(=O)(=O)NC(=O)Cc1ccc(OC(=O)c2cnc(NC(=N)N)nc2)c2ncnn12 [Compound 30, 5-(2-(methylsulfonamido)-2-oxoethyl)-[1,2,4]triazolo[1,5-a]pyridin-8-yl 2-guanidinopyrimidine-5-carboxylate]
95.7	99.9	100	85.8	99.7	99.8	N=C(N)Nc1ncc(C(=O)Oc2ccc(CC(=O)NC(CC(=O)O)C(=O)O)n3ccnc23)cn1 (stereo not drawn) [Compound 31, 2-(2-(8-(2-guanidinopyrimidine-5-carbonyloxy)imidazo[1,2-a]pyridin-5-yl)acetamido)succinic acid]
